Measurements taken from the NIST ThermoML archive (doi:10.1016/j.jct.2010.05.009).
± gives the expanded uncertainty stated by the source.

How the values were obtained:
[1] = 101 kPa, Liquid; for viscosity: Capillary tube (Ostwald / Ubbelohde) method; for mass density: Vibrating tube method
[2] = refractive index (Na D-line) (dimensionless); conditions: 101.33 kPa, Liquid, Standard Abbe refractometry
[3] = xn = mol fraction of the nth substance listed; conditions: 101 kPa, Liquid; for viscosity: Capillary tube (Ostwald / Ubbelohde) method; for mass density: Vibrating tube method
[4] = refractive index (Na D-line) (dimensionless); xn = mol fraction of the nth substance listed; conditions: 101 kPa, Liquid, Standard Abbe refractometry

Row | SMILES | viscosity ([1]; 288.15 K) [mPa·s] | mass density ([1]; 288.15 K) [kg/m3] | viscosity ([1]; 298.15 K) [mPa·s] | mass density ([1]; 298.15 K) [kg/m3] | viscosity ([1]; 308.15 K) [mPa·s] | mass density ([1]; 308.15 K) [kg/m3] | refractive index ([2]; 288.15 K) | refractive index ([2]; 298.15 K) | refractive index ([2]; 308.15 K) | viscosity ([3]; 288.15 K, x1 = 1) [mPa·s] | mass density ([3]; 288.15 K, x1 = 1) [kg/m3] | viscosity ([3]; 298.15 K, x1 = 1) [mPa·s] | mass density ([3]; 298.15 K, x1 = 1) [kg/m3] | viscosity ([3]; 308.15 K, x1 = 1) [mPa·s] | mass density ([3]; 308.15 K, x1 = 1) [kg/m3] | refractive index ([4]; 288.15 K, x1 = 1) | refractive index ([4]; 298.15 K, x1 = 1) | refractive index ([4]; 308.15 K, x1 = 1) | other results
1 | CCC(C)(C)O [2-methylbutan-2-ol] | 5.867 ± 0.043 | 814.01 ± 0.24 | 3.478 ± 0.027 | 804.88 ± 0.24 | 2.504 ± 0.019 | 795.52 ± 0.24 | 1.4062 ± 0.0004 | 1.4015 ± 0.0004 | 1.3968 ± 0.0004 | – | – | – | – | – | – | – | – | – | –
2 | CCC(C)(C)O [2-methylbutan-2-ol] + CCCN | – | – | – | – | – | – | – | – | – | 5.867 ± 0.043 | 814.01 ± 0.24 | 3.478 ± 0.027 | 804.88 ± 0.24 | 2.504 ± 0.019 | 795.52 ± 0.24 | 1.4062 ± 0.0004 | 1.4015 ± 0.0004 | 1.3968 ± 0.0004 | –
3 | CCCN [propan-1-amine] | 0.3851 ± 0.0034 | 721.57 ± 0.25 | 0.3585 ± 0.0033 | 711.08 ± 0.25 | 0.3222 ± 0.003 | 700.4 ± 0.25 | 1.3899 ± 0.0004 | 1.3844 ± 0.0004 | 1.3784 ± 0.0004 | – | – | – | – | – | – | – | – | – | –
4 | C1CCOC1 [tetrahydrofuran] | 0.4991 ± 0.0043 | 892.92 ± 0.23 | 0.454 ± 0.004 | 882.03 ± 0.24 | 0.4172 ± 0.0037 | 871.01 ± 0.24 | 1.4086 ± 0.0004 | 1.4037 ± 0.0004 | 1.3987 ± 0.0004 | – | – | – | – | – | – | – | – | – | –
5 | C1CCOC1 [tetrahydrofuran] + CCC(C)(C)O | – | – | – | – | – | – | – | – | – | – | – | – | – | – | – | – | – | – | viscosity ([3]; 288.15 K, x2 = 0): 0.4991 ± 0.0043 mPa·s; mass density ([3]; 288.15 K, x2 = 0): 892.92 ± 0.23 kg/m3; viscosity ([3]; 298.15 K, x2 = 0): 0.454 ± 0.004 mPa·s; mass density ([3]; 298.15 K, x2 = 0): 882.03 ± 0.24 kg/m3; viscosity ([3]; 308.15 K, x2 = 0): 0.4172 ± 0.0037 mPa·s; mass density ([3]; 308.15 K, x2 = 0): 871.01 ± 0.24 kg/m3; refractive index ([4]; 288.15 K, x2 = 0): 1.4086 ± 0.0004; refractive index ([4]; 298.15 K, x2 = 0): 1.4037 ± 0.0004; refractive index ([4]; 308.15 K, x2 = 0): 1.3987 ± 0.0004
6 | C1CCOC1 [tetrahydrofuran] + CCCN | – | – | – | – | – | – | – | – | – | 0.4991 ± 0.0043 | 892.92 ± 0.23 | 0.454 ± 0.004 | 882.03 ± 0.24 | 0.4172 ± 0.0037 | 871.01 ± 0.24 | 1.4086 ± 0.0004 | 1.4037 ± 0.0004 | 1.3987 ± 0.0004 | –
